pIC50: −log10 of the molar value.
Tests used:
[1] = target: JAK2 (recombinant purified GST-tagged catalytic domain) (Homo sapiens (Human), UniProt O60674); assay: Jak Biochemical HTRF Assay (JAK2); details: [ATP] 8.5 μM
[2] = target: JAK1 (recombinant purified GST-tagged catalytic domain) (Homo sapiens (Human), UniProt P23458); assay: Jak Biochemical HTRF Assay (JAK1); details: [ATP] 31.8 μM
Summary of the method: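 Kinase reaction with biotinylated peptide substrate was started by ATP addition and run 120 min at room temperature, then quenched with EDTA stop buffer containing streptavidin-Dylight 650 and Eu-pY20 antibody. HTRF read 60 min later (665/615 nm ratio); percent inhibition vs log concentration fit to 4-parameter curve for IC50.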

JAK2 (recombinant purified GST-tagged catalytic domain), sequence (O60674 849-1124): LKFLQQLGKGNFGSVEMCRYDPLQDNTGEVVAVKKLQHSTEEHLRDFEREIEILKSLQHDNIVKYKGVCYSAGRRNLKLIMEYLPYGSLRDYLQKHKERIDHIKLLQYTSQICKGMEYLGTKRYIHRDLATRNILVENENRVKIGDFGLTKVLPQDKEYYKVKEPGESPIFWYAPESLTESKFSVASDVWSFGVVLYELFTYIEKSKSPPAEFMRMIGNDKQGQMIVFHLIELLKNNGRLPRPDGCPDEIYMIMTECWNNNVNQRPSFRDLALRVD
JAK1 (recombinant purified GST-tagged catalytic domain), sequence (P23458 875-1153): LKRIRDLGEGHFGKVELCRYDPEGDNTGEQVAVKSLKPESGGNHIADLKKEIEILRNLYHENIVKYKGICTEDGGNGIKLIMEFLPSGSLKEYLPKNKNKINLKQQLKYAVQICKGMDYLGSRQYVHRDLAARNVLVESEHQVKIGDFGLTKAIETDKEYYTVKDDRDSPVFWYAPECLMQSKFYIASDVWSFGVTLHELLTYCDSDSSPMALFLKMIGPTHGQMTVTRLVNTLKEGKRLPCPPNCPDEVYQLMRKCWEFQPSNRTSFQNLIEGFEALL

| SMILES | pIC50 [1] | pIC50 [2] |
| --- | --- | --- |
| CC(c1ccc(Nc2nn([C@]3(CC#N)CC[C@@H](C(=O)OC(C)(C)C)OC3)c3cc[nH]c(=O)c23)cc1)N1CCCC1 (single isomer, unassigned) [Example 5-211, (2S,5S)-tert-butyl 5-(cyanomethyl)-5-(4-oxo-3-((4-((S or R)-1-(pyrrolidin-1-yl)ethyl)phenyl)amino)-4,5-dihydro-1H-pyrazolo [4,3-c]pyridin-1-yl) tetrahydro-2H-pyran-2-carboxylate] | 9.92 | 9.72 |
| CC(c1ccc(Nc2nn([C@]3(CC#N)CC[C@@H](C(=O)OC(C)(C)C)OC3)c3cc[nH]c(=O)c23)cc1)N1CCCC1 (single isomer, unassigned) [Example 5-212, (2S,5S)-tert-butyl 5-(cyanomethyl)-5-(4-oxo-3-((4-((S or R)-1-(pyrrolidin-1-yl)ethyl)phenyl)amino)-4,5-dihydro-1H-pyrazolo [4,3-c]pyridin-1-yl) tetrahydro-2H-pyran-2-carboxylate] | 9.82 | 9.66 |
| CN(C)C(c1ccc(Nc2nn([C@]3(CC#N)CC[C@@H](C(=O)OC(C)(C)C)OC3)c3cc[nH]c(=O)c23)cc1)C(F)(F)F (single isomer, unassigned) [Example 5-213, (2S,5S)-tert-butyl 5-(cyanomethyl)-5-(3-((4-((R or S)-1-(dimethylamino)-2,2,2-trifluoroethyl)phenyl)amino)-4-oxo-4,5-dihydro-1H-pyrazolo[4,3-c]pyridin-1-yl)tetrahydro-2H-pyran-2-carboxylate] | 9.54 | 9.72 |
| CN(C)C(c1ccc(Nc2nn([C@]3(CC#N)CC[C@@H](C(=O)OC(C)(C)C)OC3)c3cc[nH]c(=O)c23)cc1)C(F)(F)F (single isomer, unassigned) [Example 5-214, (2S,5S)-tert-butyl 5-(cyanomethyl)-5-(3-((4-((R or S)-1-(dimethylamino)-2,2,2-trifluoroethyl)phenyl)amino)-4-oxo-4,5-dihydro-1H-pyrazolo[4,3-c]pyridin-1-yl)tetrahydro-2H-pyran-2-carboxylate] | 9.49 | 9.70 |
| CC(C)S(=N)(=O)c1ccc(Nc2nn([C@]3(CC#N)CCCOC3)c3cc[nH]c(=O)c23)cc1 (single isomer, unassigned) [Example 5-232, 2-((3S)-3-(4-oxo-3-((4-(propan-2-yl-(S or R)-sulfonimidoyl)phenyl)amino)-4,5-dihydro-1H-pyrazolo[4,3-c]pyridin-1-yl)tetrahydro-2H-pyran-3-yl)acetonitrile] | 9.22 | 9.57 |
| CC(C)S(=N)(=O)c1ccc(Nc2nn([C@]3(CC#N)CCCOC3)c3cc[nH]c(=O)c23)cc1 (single isomer, unassigned) [Example 5-233, 2-((3S)-3-(4-oxo-3-((4-(propan-2-yl-(S or R)-sulfonimidoyl)phenyl)amino)-4,5-dihydro-1H-pyrazolo[4,3-c]pyridin-1-yl)tetrahydro-2H-pyran-3-yl)acetonitrile] | 9.40 | 9.44 |
| N#CC[C@@]1(n2nc(Nc3ccc(C#N)cc3)c3c(=O)[nH]ccc32)CCOC1 (single isomer, unassigned) [Example 5-239, 4-({1-[(3R or 3S)-3-(cyanomethyl)tetrahydrofuran-3-yl]-4-oxo-4,5-dihydro-1H-pyrazolo[4,3-c]pyridin-3-yl}amino)benzonitrile] | 7.78 | 8.64 |
| N#CC[C@]1(n2nc(Nc3ccc(C#N)cc3)c3c(=O)[nH]ccc32)CCOC1 (single isomer, unassigned) [Example 5-240, 4-({1-[(3S or 3R)-3-(cyanomethyl)tetrahydrofuran-3-yl]-4-oxo-4,5-dihydro-1H-pyrazolo[4,3-c]pyridin-3-yl}amino)benzonitrile] | 7.10 | 7.89 |
| N#CC[C@@]1(n2nc(Nc3ccc(Cl)cc3)c3c(=O)[nH]ccc32)CCOC1 (single isomer, unassigned) [Example 5-241, [(3R or 3S)-3-{3-[(4-chlorophenyl)amino]-4-oxo-4,5-dihydro-1H-pyrazolo[4,3-c]pyridin-1-yl}tetrahydrofuran-3-yl]acetonitrile] | 7.63 | 8.58 |
| N#CC[C@]1(n2nc(Nc3ccc(Cl)cc3)c3c(=O)[nH]ccc32)CCOC1 (single isomer, unassigned) [Example 5-242, [(3S or 3R)-3-{3-[(4-chlorophenyl)amino]-4-oxo-4,5-dihydro-1H-pyrazolo[4,3-c]pyridin-1-yl}tetrahydrofuran-3-yl]acetonitrile] | 6.89 | 7.85 |
| N#CC[C@@]1(n2nc(Nc3cc(F)c4nccc(Cl)c4c3)c3c(=O)[nH]ccc32)CCOC1 (single isomer, unassigned) [Example 5-243, [(3R or 3S)-3-{3-[(4-chloro-8-fluoroquinolin-6-yl)amino]-4-oxo-4,5-dihydro-1H-pyrazolo[4,3-c]pyridin-1-yl}tetrahydrofuran-3-yl]acetonitrile] | 7.00 | 8.18 |
| N#CC[C@]1(n2nc(Nc3cc(F)c4nccc(Cl)c4c3)c3c(=O)[nH]ccc32)CCOC1 (single isomer, unassigned) [Example 5-244, [(3S or 3R)-3-{3-[(4-chloro-8-fluoroquinolin-6-yl)amino]-4-oxo-4,5-dihydro-1H-pyrazolo[4,3-c]pyridin-1-yl}tetrahydrofuran-3-yl]acetonitrile] | 6.46 | 7.64 |
| N#CC[C@@]1(n2nc(Nc3ccc4nccc(F)c4c3)c3c(=O)[nH]ccc32)CCOC1 (single isomer, unassigned) [Example 5-245, [(3R or 3S)-3-{3-[(4-fluoroquinolin-6-yl)amino]-4-oxo-4,5-dihydro-1H-pyrazolo[4,3-c]pyridin-1-yl}tetrahydrofuran-3-yl]acetonitrile] | 7.37 | 8.41 |
| N#CC[C@]1(n2nc(Nc3ccc4nccc(F)c4c3)c3c(=O)[nH]ccc32)CCOC1 (single isomer, unassigned) [Example 5-246, [(3S or 3R)-3-{3-[(4-fluoroquinolin-6-yl)amino]-4-oxo-4,5-dihydro-1H-pyrazolo[4,3-c]pyridin-1-yl}tetrahydrofuran-3-yl]acetonitrile] | 6.76 | 7.77 |
| CC(C)(C)N1Cc2cc(Nc3nn([C@@]4(CC#N)CCOC4)c4cc[nH]c(=O)c34)ccc2S1(=O)=O (single isomer, unassigned) [Example 5-247, (S or R)-2-(3-(3-((2-(tert-butyl)-1,1-dioxido-2,3-dihydrobenzo[d]isothiazol-5-yl)amino)-4-oxo-4,5-dihydro-1H-pyrazolo[4,3-c]pyridin-1-yl)tetrahydrofuran-3-yl)acetonitrile] | 8.65 | 9.96 |
| CC(C)(C)N1Cc2cc(Nc3nn([C@]4(CC#N)CCOC4)c4cc[nH]c(=O)c34)ccc2S1(=O)=O (single isomer, unassigned) [Example 5-248, (R or S)-2-(3-(3-((2-(tert-butyl)-1,1-dioxido-2,3-dihydrobenzo[d]isothiazol-5-yl)amino)-4-oxo-4,5-dihydro-1H-pyrazolo[4,3-c]pyridin-1-yl)tetrahydrofuran-3-yl)acetonitrile] | 8.02 | 9.41 |
| CC(C)(C)S(=O)(=O)c1ccc(Nc2nn([C@@]3(CC#N)CCOC3)c3cc[nH]c(=O)c23)cc1 (single isomer, unassigned) [Example 5-249, (S or R)-2-(3-(3-((4-(tert-butylsulfonyl)phenyl)amino)-4-oxo-4,5-dihydro-1H-pyrazolo[4,3-c]pyridin-1-yl)tetrahydrofuran-3-yl)acetonitrile] | 8.61 | 8.95 |
| CC(C)(C)S(=O)(=O)c1ccc(Nc2nn([C@]3(CC#N)CCOC3)c3cc[nH]c(=O)c23)cc1 (single isomer, unassigned) [Example 5-250, (R or S)-2-(3-(3-((4-(tert-butylsulfonyl)phenyl)amino)-4-oxo-4,5-dihydro-1H-pyrazolo[4,3-c]pyridin-1-yl)tetrahydrofuran-3-yl)acetonitrile] | 7.92 | 8.36 |
| CC(C)(C)N1Cc2cc(Nc3nn([C@@]4(CC#N)CCOC[C@H]4F)c4cc[nH]c(=O)c34)ccc2S1(=O)=O (single isomer, unassigned) [Example 5-255, 2-((3S,4S or 3R,4R)-4-(3-((2-(tert-butyl)-1,1-dioxido-2,3-dihydrobenzo[d]isothiazol-5-yl)amino)-4-oxo-4,5-dihydro-1H-pyrazolo[4,3-c]pyridin-1-yl)-3-fluorotetrahydro-2H-pyran-4-yl)acetonitrile] | 8.48 | 9.85 |
| CC(C)(C)N1Cc2cc(Nc3nn([C@]4(CC#N)CCOC[C@@H]4F)c4cc[nH]c(=O)c34)ccc2S1(=O)=O (single isomer, unassigned) [Example 5-256, 2-((3R,4R or 3S,4S)-4-(3-((2-(tert-butyl)-1,1-dioxido-2,3-dihydrobenzo[d]isothiazol-5-yl)amino)-4-oxo-4,5-dihydro-1H-pyrazolo[4,3-c]pyridin-1-yl)-3-fluorotetrahydro-2H-pyran-4-yl)acetonitrile] | 10.22 | 10.40 |
| Cc1cc(Nc2nn([C@@]3(CC#N)CCOC[C@H]3F)c3cc[nH]c(=O)c23)ccc1C(=O)N1CCOCC1 (single isomer, unassigned) [Example 5-257, 2-((3S,4S or 3R,4R)-3-fluoro-4-(3-(3-methyl-4-(morpholine-4-carbonyl)phenylamino)-4-oxo-4,5-dihydropyrazolo[4,3-c]pyridin-1-yl)-tetrahydro-2H-pyran-4-yl)acetonitrile] | 8.50 | 8.68 |
| Cc1cc(Nc2nn([C@]3(CC#N)CCOC[C@@H]3F)c3cc[nH]c(=O)c23)ccc1C(=O)N1CCOCC1 (single isomer, unassigned) [Example 5-258, 2-((3R,4R or 3S,4S)-3-fluoro-4-(3-((3-methyl-4-(morpholine-4-carbonyl)phenyl)amino)-4-oxo-4,5-dihydro-1H-pyrazolo[4,3-c]pyridin-1-yl)tetrahydro-2H-pyran-4-yl)acetonitrile] | 10.10 | 10.15 |

From patent US9957264B2 (Merck Sharp & Dohme Corp., priority 2013, dated 2018)
